How the values were obtained:
231-Br-Luc cells = test: In vitro cytotoxicity (MTS assay) in brain-seeking TNBC cells; type: cell-based, human; details: 24 hours' incubation
231-Luc cells = test: In vitro cytotoxicity (MTS assay); type: cell-based, human
Experimental: For cytotoxicity assays, 231-Luc cells were cultured in 96-well plates at 5×10^3 cells/well for 24 hours. Culture media was removed and replaced with media containing various treatment groups. […] The culture media was removed after 2 hours of incubation to mimic the clearance mechanism and replaced with fresh culture media. Cell viability was then measured after 24 hours with percent viability calculated as absorbance relative to control wells (cell with culture media). A total of 3 wells were used per treatment per concentration for each experiment.

SMILES: CC(=O)O[C@H]1C(=O)[C@@]2(C)[C@H]([C@H](OC(=O)c3ccccc3)[C@]3(O)C[C@H](OC(=O)[C@H](O)[C@@H](NC(=O)c4ccccc4)c4ccccc4)C(C)=C1C3(C)C)[C@]1(OC(C)=O)CO[C@@H]1C[C@@H]2O [PTX, Paclitaxel]
- cell sensitivity (viability) (231-Br-Luc cells): sensitive to PTX treatment in vitro
- effect on cell viability / cytotoxicity (231-Luc cells; 2 hours exposure, then fresh media for 24 hours): only a small effect on cell viability
- cytotoxicity (231-Luc cells; 24 hours in culture media): more potent than Abraxane™
